From US20210338681A1, “COMBINATION THERAPIES” (SECURA BIO, INC., priority 2018, published 2021)
“Also recorded” adds a separate entry of the source.

What was measured:
human macrophages [1] = test: Phagocytosis of CTV-labelled DLD-1 and Raji cells by human monocyte-derived macrophages, flow cytometry-based assay (Example 1); assay type: cell-based; settings: FIG. 1
Procedure: PBMC were isolated using a density gradient from healthy donor blood samples. CD14+ monocytes were then separated using magnetic selection and differentiated into MO macrophages for 6 days in the presence of M-CSF and 3000 nM of duvelisib or vehicle (DMSO). Two cell lines positive for surface expression of CD47, DLD-1 (ATCC® CCL-221™) and Raji cells (ATCC® CCL-86™), were labelled with cell trace violet (CTV). These were then offered to the macrophage cultures in the presence of duvelisib or vehicle control for 4 hours to allow phagocytosis to occur. For the part of the assay where a CD47 blocking antibody and an opsonizing antibody were used, CD47 blocking antibody at 1 μg/ml (clone B6H12) and rituximab (for Raji cells) or cetuximab (for DLD-1 cells) at 1 μg/ml were added during the 4 hours co-culture. The effect of duvelisib on the capacity of macrophages to phagocytose target cells was determined in a flow cytometry-based assay.

human macrophages [2] = test: Phagocytosis of CTV-labelled Raji cells by human monocyte-derived macrophages with anti-CD47 clone 5F9, flow cytometry-based assay (Example 2); assay type: cell-based; settings: 3000 nM duvelisib during last 3 days of differentiation; CD47 blocking antibody clone 5F9 300 ng/ml, 2 hours; compared to duvelisib or anti-CD47 alone; FIG. 2
Procedure: PBMC were isolated using a density gradient from healthy donor blood samples. CD14+ monocytes were then separated using magnetic selection and differentiated into MO macrophages for 6 days in the presence of M-CSF. Duvelisib (3000 nM) or vehicle (DMSO) were added during the last 3 days of differentiation. Raji cells (ATCC® CCL-86™), which are positive for surface expression of CD47, were labelled with cell trace violet (CTV). These cells were then offered to the macrophage cultures in the presence of CD47 blocking antibody at 300 ng/ml (clone 5F9) for 2 hours to allow phagocytosis to occur. The effect of duvelisib on the capacity of macrophages to phagocytose target cells was determined in a flow cytometry-based assay.

`C[C@H](Nc1ncnc2[nH]cnc12)c1cc2cccc(Cl)c2c(=O)n1-c1ccccc1` [duvelisib, (S)-3-(1-((9H-purin-6-yl)amino)ethyl)-8-chloro-2-phenylisoquinolin-1(2H)-one] was tested, and the “phagocytosis by human macrophages, duvelisib as a single agent” value (human macrophages [1]; 3000 nM duvelisib vs vehicle (DMSO) during 6 days differentiation with M-CSF and 4 hours co-culture, target cells DLD-1 and Raji, two representative donors per condition) was “increases phagocytosis; also recorded: increasing phagocytosis”, the “phagocytosis by human macrophages, duvelisib in combination with anti-CD47 (clone B6H12) and an opsonizing antibody” value (human macrophages [1]; 3000 nM duvelisib, CD47 blocking antibody clone B6H12 1 μg/ml plus rituximab (Raji cells) or cetuximab (DLD-1 cells) 1 μg/ml during 4 hours co-culture) was “increases phagocytosis; also recorded: increasing phagocytosis” and the “phagocytosis of Raji Burkitt's lymphoma cells by human macrophages, duvelisib in combination with anti-CD47 (clone 5F9)” value (human macrophages [2]) was “enhances phagocytosis; also recorded: increasing phagocytosis”.
